Measurements reported in the supplement of paper PMC8671470.

What was measured:
Test in all cases: cell viability (% survival relative to DMSO control, bortezomib = 0%); higher = less cytotoxic
Conditions in all cases: 72 h
KCL-22 = system: KCL-22
Summary of the method: (§1)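 Percent survival figures are means of duplicate wells. They were obtained by CellTiter-Glo luminescence after 10 AML and 5 CML cell lines spent 72 h at 37 °C with 5% CO2 in 384-well plates with compounds at 1, 10, 100, 1000 or 10000 nM. Vehicle was set to 100% and a 10 µM positive control to 0%.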

KU-812 = system: KU-812
Summary of the method: as §1

ML-2 = system: ML-2
Summary of the method: as §1

MV4-11 = system: MV4-11
Summary of the method: as §1

| SMILES | cell viability (KCL-22; 1 nM) | cell viability (KCL-22; 10 nM) | cell viability (KCL-22; 100 nM) | cell viability (KCL-22; 1000 nM) | cell viability (KCL-22; 10000 nM) | cell viability (KU-812; 1 nM) | cell viability (KU-812; 10 nM) | cell viability (KU-812; 100 nM) | cell viability (KU-812; 1000 nM) | cell viability (KU-812; 10000 nM) | cell viability (ML-2; 1 nM) | cell viability (ML-2; 10 nM) | cell viability (ML-2; 100 nM) | cell viability (ML-2; 1000 nM) | cell viability (ML-2; 10000 nM) | cell viability (MV4-11; 1 nM) | cell viability (MV4-11; 10 nM) | cell viability (MV4-11; 100 nM) | cell viability (MV4-11; 1000 nM) | cell viability (MV4-11; 10000 nM) |
| --- | --- | --- | --- | --- | --- | --- | --- | --- | --- | --- | --- | --- | --- | --- | --- | --- | --- | --- | --- | --- |
| c1ccc2c(c1)OCC(=C1NCCN1)O2 [Idazoxan] | 105% | 104% | 78.6% | 91% | 87.4% | 105% | 108% | 96.5% | 91.8% | 105% | 97.4% | 97.9% | 86.9% | 94.2% | 93.7% | 82.3% | 106% | 80.6% | 82.9% | 89.1% |
| CCOC(=O)[C@@]1(CCCCCCOc2ccc(Cl)cc2)CO1 [Etomoxir] | 104% | 112% | 116% | 101% | 78.9% | 91.3% | 110% | 93.5% | 82.7% | 60.8% | 109% | 109% | 114% | 87.6% | 99.9% | 105% | 97.2% | 99% | 85.3% | 79.3% |
| CC(C)C[C@H](NC(=O)[C@@H](O)[C@H](N)Cc1ccccc1)C(=O)O [Ubenimex] | 118% | 120% | – | 89.2% | 95.2% | 110% | 109% | 97.8% | 97.4% | 115% | 108% | 109% | 101% | 87.3% | 99.8% | 100% | 103% | 109% | 99.8% | 143% |
| Cl.OC[C@H]1NC[C@@H](O)[C@@H](O)[C@@H]1O [1-Deoxymannojirimycin hydrochloride] | 95.9% | 86.8% | 96.4% | 111% | 105% | 101% | 89.2% | 95.7% | 98% | 98.1% | 101% | 90.6% | 100% | 110% | 87.6% | 102% | 92.2% | 99.3% | 105% | 80.8% |
| O=C(O)CCc1ccc(NCc2cccc(Oc3ccccc3)c2)cc1 [GW9508] | 101% | 89.5% | 89.6% | 102% | 93.4% | 89.2% | 92.4% | 101% | 98.8% | 99.3% | 84.3% | 103% | 95.8% | 112% | 103% | 98.2% | 98.7% | 103% | 103% | 106% |
| Clc1ccc2c(c1Cl)CNCC2 | 101% | 120% | 92.2% | 108% | 91.5% | 99.9% | 92.5% | 94.4% | 118% | 87.8% | 91.5% | 118% | 90% | 102% | 87.9% | 99.7% | 114% | 96.3% | 114% | 91.6% |
| C[C@]12O[C@H](C[C@]1(O)CO)n1c3ccccc3c3c4c(c5c6ccccc6n2c5c31)CNC4=O [Lestaurtinib] | 104% | 91% | 59.6% | 21.8% | 1.08% | 96% | 89.8% | 39.4% | 43.1% | 6% | 107% | 84.4% | 61.4% | 9.84% | 0.0251% | 73.6% | 7.97% | -0.544% | 0.552% | 0.212% |
| O=c1c2ccccc2[se]n1-c1ccccc1 [Ebselen] | 103% | 97.8% | 104% | 96.5% | 93.1% | 94.5% | 104% | 89.5% | 99.4% | 87.8% | 95.6% | 96.7% | 96.1% | 96.9% | 82% | 93% | 92.5% | 93.8% | 99.7% | 68% |
| Oc1cc(Cl)ccc1Oc1ccc(Cl)cc1Cl [Triclosan] | 115% | 98.3% | 89.7% | 105% | 65.5% | 98.8% | 87% | 99.2% | 98% | 57.9% | 101% | 104% | 102% | 114% | 93.5% | 110% | 82.5% | 104% | 93.7% | 82.1% |
| Clc1ccc(COC(Cn2ccnc2)c2ccc(Cl)cc2Cl)cc1 (centres undefined) [Econazole] | 116% | 91.2% | 96.9% | 84.2% | 54.8% | 113% | 101% | 87.2% | 89.5% | 41.9% | 110% | 88.3% | 112% | 89.8% | 58.1% | 103% | 83.4% | 89.3% | 57.4% | 25.2% |
| CCN(CC)CCN(Cc1ccc(-c2ccc(C(F)(F)F)cc2)cc1)C(=O)Cn1c(SCc2ccc(F)cc2)nc(=O)c2c1CCC2 [Darapladib] | 112% | 113% | 114% | 86.3% | -0.547% | 110% | 93.6% | 100% | 80.7% | -0.56% | 102% | 98.2% | 88.9% | 88.8% | -0.43% | 88.5% | 104% | 87.8% | 102% | -0.522% |
